Read-outs that look alike come from different tables or passages of the source.
How the values were obtained:
[1] = solubility of carvedilol in adjuvants and solvents with lipophilic character; format: physicochemical; details: for solubility: oil or lipid
[2] = gastrointestinal resorption after peroral administration; format: in vivo; details: rapid release formulations, e.g. the commercial formulation
[3] = solubility of carvedilol in aqueous media; format: physicochemical; details: about pH 1-2

- solubility in pronounced lipophilic solvents (paraffin, petroleum ether) [1]: very low
- solubility in benzyl alcohol ([1]; at 37° C.): > 100 mg of carvedilol per ml
- solubility ([1]; capric acid, 37 °C, at 37° C., read-out: solubility in capric acid): > 100 mg/mL
- solubility ([1]; in many cases, read-out: solubility in glycerol oleyloleate, medium chain triglycerides and natural oils): < 10 mg/mL
- solubility ([1]; all named solvents, read-out: solubility in glycerol oleyloleate, medium chain triglycerides and natural oils (cod liver, soya bean, sesame, peanut, olive, cottonseed oil)): < 50 mg/mL
- solubility ([1]; oleic acid, 37 °C, at 37° C., read-out: solubility in oleic acid): > 100 mg/mL
- resorption quota [2]: up to 80%
- solubility in aqueous media, strongly acidic region [3]: very low solubility
Structure (SMILES): COc1ccccc1OCCNCC(O)COc1cccc2[nH]c3ccccc3c12 (centres unmarked) [carvedilol, 1-(4-carbazolyloxy)-3-[2-(2-methoxyphenoxy)ethyl-amino]-2-propanol]

— US20040204474A1, “Carvedilol-lipophilic solutions” (priority 2000, published 2004)
